This series in a line: activity coefficient (dimensionless); of the first substance listed, at infinite dilution; xn = mol fraction of the nth substance listed. The following applies: Liquid, Chromatography, x1 = 0.

± gives the expanded uncertainty stated by the source.

Consider 38 compounds from the NIST ThermoML archive (doi:10.1016/j.fluid.2014.11.020).

Turning to `ClC(Cl)Cl` [trichloromethane] + CCCOC[n+]1ccn(C)c1.O=S(=O)([N-]S(=O)(=O)C(F)(F)F)C(F)(F)F, the activity coefficient turned out to be 1.03 ± 0.06 (323.15 K), 1.06 ± 0.07 (333.15 K) and 1.06 ± 0.07 (343.15 K).
With `c1ccccc1` [benzene] + CN(C)c1cc[n+](COCCCOC[n+]2ccc(N(C)C)cc2)cc1.O=S(=O)([N-]S(=O)(=O)C(F)(F)F)C(F)(F)F.O=S(=O)([N-]S(=O)(=O)C(F)(F)F)C(F)(F)F, the activity coefficient (323.15 K) was determined as 0.66 ± 0.05, the activity coefficient (333.15 K) came out at 0.67 ± 0.05 and the activity coefficient (343.15 K) stood at 0.68 ± 0.05.
The like results for `Cc1ccccc1` [toluene] + CCCOC[n+]1ccn(C)c1.F[B-](F)(F)F were, in that order, 6.06 ± 0.41, 6.02 ± 0.41 and 5.98 ± 0.41.
The like results for `ClC(Cl)Cl` [trichloromethane] + CCCCCCCCn1cc[n+](COCCCOC[n+]2ccn(CCCCCCCC)c2C)c1C.O=S(=O)([N-]S(=O)(=O)C(F)(F)F)C(F)(F)F.O=S(=O)([N-]S(=O)(=O)C(F)(F)F)C(F)(F)F were, in that order, 0.39 ± 0.03, 0.38 ± 0.03 and 0.39 ± 0.03.
The like results for `CCC(C)=O` [butanone] + N#C[N-]C#N.N#C[N-]C#N.c1ccc(Cn2cc[n+](COCCCOC[n+]3ccn(Cc4ccccc4)c3)c2)cc1 were, in that order, 1.78 ± 0.12, 1.55 ± 0.1 and 1.41 ± 0.09.
For the compound `c1ccsc1` [thiophene] + CCCOC[n+]1ccc(N(C)C)cc1.O=S(=O)([N-]S(=O)(=O)C(F)(F)F)C(F)(F)F, the activity coefficient reads like this: (323.15 K) 0.65 ± 0.04; (333.15 K) 0.69 ± 0.05; (343.15 K) 0.69 ± 0.05.
As for `Cc1ccccc1` [toluene] + N#C[N-]C#N.N#C[N-]C#N.c1ccc(Cn2cc[n+](COCCCOC[n+]3ccn(Cc4ccccc4)c3)c2)cc1, the activity coefficient reads like this: (323.15 K) 5.08 ± 0.35; (333.15 K) 4.97 ± 0.34; (343.15 K) 4.8 ± 0.33.
For `C#CCCCCC` [1-heptyne] + Cn1cc[n+](COCCCOC[n+]2ccn(C)c2)c1.N#C[N-]C#N.N#C[N-]C#N, in that order: 27.6 ± 1.9, 26.2 ± 1.8 and 26.1 ± 1.8.
The like results for `CCC(C)=O` [butanone] + CN(C)c1cc[n+](COCCCOC[n+]2ccc(N(C)C)cc2)cc1.O=S(=O)([N-]S(=O)(=O)C(F)(F)F)C(F)(F)F.O=S(=O)([N-]S(=O)(=O)C(F)(F)F)C(F)(F)F were, in that order, 0.44 ± 0.04, 0.41 ± 0.03 and 0.38 ± 0.03.
The like results for `CCCC(C)=O` [pentan-2-one] + CCCOC[n+]1ccn(Cc2ccccc2)c1.F[B-](F)(F)F were, in that order, 1.79 ± 0.12, 1.76 ± 0.12 and 1.82 ± 0.12.
Consider `CC#N` [acetonitrile] + N#C[N-]C#N.N#C[N-]C#N.c1ccc(Cn2cc[n+](COCCCOC[n+]3ccn(Cc4ccccc4)c3)c2)cc1, for which the activity coefficient stood at 0.99 ± 0.06 (323.15 K), 0.97 ± 0.06 (333.15 K) and 0.98 ± 0.06 (343.15 K).
With `c1ccncc1` [pyridine] + CCCOC[n+]1ccn(Cc2ccccc2)c1.N#C[N-]C#N, the activity coefficient (323.15 K) is 0.67 ± 0.05, the activity coefficient (333.15 K) was determined as 0.69 ± 0.05 and the activity coefficient (343.15 K) was found to be 0.71 ± 0.05.
For `Cc1ccc(C)cc1` [1,4-dimethylbenzene] + CCCCCCCCn1cc[n+](COCCCOC[n+]2ccn(CCCCCCCC)c2C)c1C.N#C[N-]C#N.N#C[N-]C#N, in that order: 1.34 ± 0.09, 1.35 ± 0.09 and 1.36 ± 0.09.
The like results for `CCC[N+](=O)[O-]` [1-nitropropane] + CCCOC[n+]1ccn(C)c1.N#C[N-]C#N were, in that order, 1.36 ± 0.09, 1.37 ± 0.09 and 1.39 ± 0.09.
As for `Cc1ccccc1C` [1,2-dimethylbenzene] + CCCCCCCCn1cc[n+](COCCCOC[n+]2ccn(CCCCCCCC)c2C)c1C.N#C[N-]C#N.N#C[N-]C#N, the activity coefficient is, setting by setting: (323.15 K) 1.16 ± 0.07; (333.15 K) 1.18 ± 0.08; (343.15 K) 1.22 ± 0.08.
The like results for `c1ccncc1` [pyridine] + CCCOC[n+]1ccn(C)c1.N#C[N-]C#N were, in that order, 0.91 ± 0.06, 0.93 ± 0.06 and 0.97 ± 0.06.
For `ClC(Cl)Cl` [trichloromethane] + CCCCCCCCn1cc[n+](COCCC)c1C.N#C[N-]C#N, in that order: 0.27 ± 0.03, 0.3 ± 0.03 and 0.33 ± 0.03.
Turning to `CCCCO` [butan-1-ol] + CCCCCCCCn1cc[n+](COCCC)c1C.O=S(=O)([N-]S(=O)(=O)C(F)(F)F)C(F)(F)F, the activity coefficient reads like this: (323.15 K) 5.47 ± 0.37; (333.15 K) 4.33 ± 0.3; (343.15 K) 4.28 ± 0.29.
In the case of `CCc1ccccc1` [ethylbenzene] + CCCOC[n+]1ccn(C)c1.F[B-](F)(F)F, the activity coefficient reads like this: (323.15 K) 11 ± 0.75; (333.15 K) 10.8 ± 0.74; (343.15 K) 10.7 ± 0.73.
For `C1CCCCC1` [cyclohexane] + CCCOC[n+]1ccn(C)c1.N#C[N-]C#N, in that order: 26.6 ± 1.8, 24.3 ± 1.7 and 22.7 ± 1.6.
In the case of `CCCCCCCC` [octane] + CCCCCCCCn1cc[n+](COCCC)c1C.O=S(=O)([N-]S(=O)(=O)C(F)(F)F)C(F)(F)F, the activity coefficient stood at 5.76 ± 0.39 (323.15 K), 5.48 ± 0.37 (333.15 K) and 5.17 ± 0.35 (343.15 K).
The like results for `Cc1cccc(C)c1` [1,3-dimethylbenzene] + CCCOC[n+]1ccn(Cc2ccccc2)c1.N#C[N-]C#N were, in that order, 3.62 ± 0.25, 3.52 ± 0.24 and 3.42 ± 0.23.
The like results for `CCC(=O)CC` [pentan-3-one] + CCCCCCCCn1cc[n+](COCCC)c1C.N#C[N-]C#N were, in that order, 0.88 ± 0.06, 0.89 ± 0.06 and 0.91 ± 0.06.
With `C#CCCCC` [1-hexyne] + CCCCCCCCn1cc[n+](COCCC)c1C.O=S(=O)([N-]S(=O)(=O)C(F)(F)F)C(F)(F)F, the activity coefficient was found to be 1.39 ± 0.09 (323.15 K), 1.36 ± 0.09 (333.15 K) and 1.34 ± 0.09 (343.15 K).
For `CC(C)OC(C)C` [diisopropyl ether] + CN(C)c1cc[n+](COCCCOC[n+]2ccc(N(C)C)cc2)cc1.O=S(=O)([N-]S(=O)(=O)C(F)(F)F)C(F)(F)F.O=S(=O)([N-]S(=O)(=O)C(F)(F)F)C(F)(F)F, in that order: 5.9 ± 0.4, 5.72 ± 0.39 and 5.65 ± 0.39.
For `ClC(Cl)Cl` [trichloromethane] + CCCOC[n+]1ccn(Cc2ccccc2)c1.F[B-](F)(F)F, in that order: 1.16 ± 0.07, 1.15 ± 0.07 and 1.2 ± 0.08.
On to `C=CCCCC` [hex-1-ene] + CCCCCCCCn1cc[n+](COCCCOC[n+]2ccn(CCCCCCCC)c2C)c1C.N#C[N-]C#N.N#C[N-]C#N, for which the activity coefficient (323.15 K) was 4.93 ± 0.34 and the activity coefficient (333.15 K) stood at 4.41 ± 0.3.
Take `C1COCCO1` [1,4-dioxane] + CCCOC[n+]1ccn(Cc2ccccc2)c1.F[B-](F)(F)F: the activity coefficient is, setting by setting: (323.15 K) 0.95 ± 0.06; (333.15 K) 0.95 ± 0.06; (343.15 K) 0.96 ± 0.06.
Regarding `CC1CCCC1` [methylcyclopentane] + Cn1cc[n+](COCCCOC[n+]2ccn(C)c2)c1.O=S(=O)([N-]S(=O)(=O)C(F)(F)F)C(F)(F)F.O=S(=O)([N-]S(=O)(=O)C(F)(F)F)C(F)(F)F, the activity coefficient is, setting by setting: (323.15 K) 16.4 ± 1.1; (333.15 K) 10.2 ± 0.7.
Consider `CCCCCCC` [heptane] + CCCCCCCCn1cc[n+](COCCC)c1C.O=S(=O)([N-]S(=O)(=O)C(F)(F)F)C(F)(F)F, for which the activity coefficient reads like this: (323.15 K) 4.64 ± 0.32; (333.15 K) 4.56 ± 0.31; (343.15 K) 3.98 ± 0.27.
Consider `ClC(Cl)(Cl)Cl` [tetrachloromethane] + CCCOC[n+]1ccc(N(C)C)cc1.O=S(=O)([N-]S(=O)(=O)C(F)(F)F)C(F)(F)F, for which the activity coefficient runs as follows: (323.15 K) 2.01 ± 0.14; (333.15 K) 2.08 ± 0.14; (343.15 K) 1.95 ± 0.13.
The like results for `ClCCl` [dichloromethane] + CCCOC[n+]1ccn(Cc2ccccc2)c1.O=S(=O)([N-]S(=O)(=O)C(F)(F)F)C(F)(F)F were, in that order, 0.52 ± 0.04, 0.44 ± 0.04 and 0.37 ± 0.03.
As to `CCCCCCCCCC` [decane] + CCCOC[n+]1ccn(C)c1.O=S(=O)([N-]S(=O)(=O)C(F)(F)F)C(F)(F)F, the activity coefficient is, setting by setting: (323.15 K) 69.6 ± 4.8; (333.15 K) 60.5 ± 4.2; (343.15 K) 53 ± 3.6.
Consider `CCCCCC` [hexane] + CCCOC[n+]1ccn(C)c1.O=S(=O)([N-]S(=O)(=O)C(F)(F)F)C(F)(F)F, for which the activity coefficient runs as follows: (323.15 K) 15.9 ± 1.1; (333.15 K) 13.3 ± 0.91.
With `CCC(C)CC` [3-methylpentane] + CCCOC[n+]1ccc(N(C)C)cc1.O=S(=O)([N-]S(=O)(=O)C(F)(F)F)C(F)(F)F, the activity coefficient by setting is: (323.15 K) 9.61 ± 0.66; (333.15 K) 9.48 ± 0.65; (343.15 K) 9.24 ± 0.63.
The like results for `CCCCCCCCCC` [decane] + CCCCCCCCn1cc[n+](COCCC)c1C.N#C[N-]C#N were, in that order, 17 ± 1.2, 15.5 ± 1.1 and 14.9 ± 1.
The like results for `CCC[N+](=O)[O-]` [1-nitropropane] + CCCOC[n+]1ccc(N(C)C)cc1.O=S(=O)([N-]S(=O)(=O)C(F)(F)F)C(F)(F)F were, in that order, 0.68 ± 0.05, 0.69 ± 0.05 and 0.69 ± 0.05.
`ClC(Cl)(Cl)Cl` [tetrachloromethane] + CCCOC[n+]1ccn(Cc2ccccc2)c1.F[B-](F)(F)F: the activity coefficient came out at 5.01 ± 0.34 (323.15 K), 4.71 ± 0.32 (333.15 K) and 4.58 ± 0.31 (343.15 K).
